What was measured:
[1] = Dark cytotoxicity, MTT assay, MIA-PaCa-2; type: cell-based; conditions: human, MIA-PaCa-2 cells, 3 h, no light, 72 h incubation, read-out: Cell viability, Dark cytotoxicity against MIA-PaCa-2; for viability at 3.12 μM: 3.12 μM photosensitizer; for viability at 6.25 μM: 6.25 μM photosensitizer; for viability at 12.5 μM: 12.5 μM photosensitizer; for viability at 25 μM: 25 μM photosensitizer; for viability at 50 μM: 50 μM photosensitizer
Method: (§1) Dark cytotoxicity: The culture of AsPC-1 pancreatic cancer cells were grown in RPMI-1640 medium (life technologies corporation, USA) supplemented with 10% heat-inactivated fetal bovine serum (life technologies corporation, USA) and 1 penicillin (life technologies corporation, USA), whereas MIA-paca2 and PANC-1 cells were grown in DMEM. The MTT assay was used to assess the cell viability of AsPC-1, MIA-paca2, PANC-1 cells. The cells attached to a 96-well plate (5,000 cells/well) were treated with 3.125 μM, 6.25 μM, 12.5 μM, 25 μM, 50 μM of photosensitizers, 7, 10, 13, 16, and 3 for 3 h. The cells were then incubated for 72 h at 37° C. in a 5% CO2 incubator and exposed to MTT [3-(4,5-dimethylthiazol-2-yl)-2,5-diphenyl-tetrazolium bromide] (250 μg/ml) for 3 h. The solution was changed to 200 μl of dimethylsulfoxide (DMSO, Sigma). After 30 min incubation and shaking in microplate mixer, the optical density (OD) was measured using a microplate reader (Thermo Fisher scientific, USA) at 570 nm wavelength. The cell viability was calculated using the following formula: Cell viability (%)=Mean optical density of treated wells/Mean optical density of control wells×100.

[2] = tested on: AsPC-1 pancreatic cancer cells; experiment: Phototoxicity (PDT), MTT assay, AsPC-1; type: cell-based; conditions: for Cell viability, Phototoxicity against AsPC-1: 3 h, 50 mW 0.09 J/cm^2 laser 100 sec, 72 h incubation
Method: as §1, with “Phototoxicity: The culture” for “Dark cytotoxicity: The culture”, “USA) and 1% penicillin (life” for “USA) and 1 penicillin (life”, “3 h. The photosensitized cells were then irradiated with a 50 mW, 0.09 J/cm^2 laser for 100 sec. The cells” for “3 h. The cells”

[3] = Photophysical properties (absorption) in DMSO; type: physicochemical
Method: The photophysical properties of Ce6-curcumin conjugates and dimethyl ester ce6 were analyzed in dimethyl sulfoxide (DMSO). All the photosensitizers 7, 10, 13, and 16 (Formula IV) effectively absorbed the red light compared to dimethyl ester ce6. The major soret peak at λmax=405-408 nm and Q-bands at 667 nm for the photosensitizers 7, 10, 13, and 16 (Formula IV) and Q band peak at 656 for dimethyl ester ce6.

[4] = Dark cytotoxicity, MTT assay, AsPC-1; type: cell-based; conditions: human, AsPC-1 pancreatic cancer cells, 3 h, no light, 72 h incubation, read-out: Cell viability, Dark Cytotoxicity against AsPC-1; for viability at 3.12 μM: 3.12 μM photosensitizer; for viability at 6.25 μM: 6.25 μM photosensitizer; for viability at 12.5 μM: 12.5 μM photosensitizer; for viability at 25 μM: 25 μM photosensitizer; for viability at 50 μM: 50 μM photosensitizer
Method: as §1

MIA-PaCa-2 = experiment: Phototoxicity (PDT), MTT assay, MIA-PaCa-2; type: cell-based; conditions: for Cell viability, Phototoxicity against MIA-PaCa-2: 3 h, 50 mW 0.09 J/cm^2 laser 100 sec, 72 h incubation
Method: as §1, with “Phototoxicity: The culture” for “Dark cytotoxicity: The culture”, “USA) and 1% penicillin (life” for “USA) and 1 penicillin (life”, “3 h. The photosensitized cells were then irradiated with a 50 mW, 0.09 J/cm^2 laser for 100 sec. The cells” for “3 h. The cells”

PANC-1 = experiment: Phototoxicity (PDT), MTT assay, PANC-1; type: cell-based; conditions: for Cell viability, Phototoxicity against PANC-1: 3 h, 50 mW 0.09 J/cm^2 laser 100 sec, 72 h incubation
Method: as §1, with “Phototoxicity: The culture” for “Dark cytotoxicity: The culture”, “USA) and 1% penicillin (life” for “USA) and 1 penicillin (life”, “3 h. The photosensitized cells were then irradiated with a 50 mW, 0.09 J/cm^2 laser for 100 sec. The cells” for “3 h. The cells”

| Molecule | viability at 3.12 μM [1] [%] | viability at 6.25 μM [1] [%] | viability at 12.5 μM [1] [%] | viability at 25 μM [1] [%] | viability at 50 μM [1] [%] | Cell viability, Phototoxicity against AsPC-1 ([2]; 3.12 μM photosensitizer) [%] | Cell viability, Phototoxicity against AsPC-1 ([2]; 6.25 μM photosensitizer) [%] | Cell viability, Phototoxicity against AsPC-1 ([2]; 12.5 μM photosensitizer) [%] | Cell viability, Phototoxicity against AsPC-1 ([2]; 25 μM photosensitizer) [%] | Cell viability, Phototoxicity against AsPC-1 ([2]; 50 μM photosensitizer) [%] | Q-band peak [3] [nm] | viability at 3.12 μM [4] [%] | viability at 6.25 μM [4] [%] | viability at 12.5 μM [4] [%] | viability at 25 μM [4] [%] | viability at 50 μM [4] [%] | Cell viability, Phototoxicity against PANC-1 (PANC-1; 3.12 μM photosensitizer) [%] | Cell viability, Phototoxicity against PANC-1 (PANC-1; 6.25 μM photosensitizer) [%] | Cell viability, Phototoxicity against PANC-1 (PANC-1; 12.5 μM photosensitizer) [%] | Cell viability, Phototoxicity against PANC-1 (PANC-1; 25 μM photosensitizer) [%] | further results |
| --- | --- | --- | --- | --- | --- | --- | --- | --- | --- | --- | --- | --- | --- | --- | --- | --- | --- | --- | --- | --- | --- |
| C=Cc1c(C)c2cc3nc(c(CC(=O)OC)c4[nH]c(cc5nc(cc1[nH]2)C(C)=C5CC)c(C)c4C(=O)NCCCCCCNC(=O)CCCC(=O)Oc1ccc(/C=C/C(=O)CC(=O)/C=C/c2ccc(O)c(OC)c2)cc1OC)C(CCC(=O)OC)C3C (stereo not drawn) [Compound 10, Chlorine e6-curcumin Conjugate (10)] | 89.7 | 82 | 75.1 | 66.4 | 48.7 | 85.90 | 75.12 | 34.05 | 26.11 | 23.17 | 667 | 96.5 | 98.2 | 98.5 | 95 | 78.8 | 99.74 | 96.76 | 81.89 | 81.07 | Cell viability, Phototoxicity against MIA-PaCa-2 (MIA-PaCa-2; 3.12 μM photosensitizer): 94.15%; Cell viability, Phototoxicity against MIA-PaCa-2 (MIA-PaCa-2; 6.25 μM photosensitizer): 90.03%; Cell viability, Phototoxicity against MIA-PaCa-2 (MIA-PaCa-2; 12.5 μM photosensitizer): 85.20%; Cell viability, Phototoxicity against MIA-PaCa-2 (MIA-PaCa-2; 25 μM photosensitizer): 64.88%; Cell viability, Phototoxicity against MIA-PaCa-2 (MIA-PaCa-2; 50 μM photosensitizer): 48.21%; Cell viability, Phototoxicity against PANC-1 (PANC-1; 50 μM photosensitizer): 73.00% |
| C=Cc1c(C)c2cc3nc(c(CC(=O)O)c4[nH]c(cc5nc(cc1[nH]2)C(C)=C5CC)c(C)c4C(=O)O)[C@@H](CCC(=O)O)[C@@H]3C [Compound 3, Chlorin e6] | 98.8 | 101 | 100 | 99.6 | 100 | 91.05 | 76.65 | 66.31 | 37.32 | 17.52 | – | 98.8 | 101 | 100 | 99.6 | 100 | 104.37 | 82.85 | 30.03 | 8.57 | inhibition at 25 µM ([2]; Homo sapiens, ASPC1, 25 μM concentration, with light): 63%; Cell viability, Phototoxicity against PANC-1 (PANC-1; 50 μM photosensitizer): 7.61%; inhibition at 25 µM (PANC-1; Homo sapiens, PANC-1, 25 μM concentration, with light): 91% |
| C=Cc1c(C)c2cc3nc(c(CC(=O)OC)c4[nH]c(cc5nc(cc1[nH]2)C(C)=C5CC)c(C)c4C(=O)NCCOCCOCCNC(=O)CCCC(=O)Oc1ccc(/C=C/C(=O)CC(=O)/C=C/c2ccc(O)c(OC)c2)cc1OC)C(CCC(=O)OC)C3C (stereo not drawn) [Compound 13, Chlorine e6-curcumin Conjugate (13)] | 114 | 115 | 114 | 96.3 | 66.8 | 7.34 | 6.61 | 6.48 | 6.58 | 6.58 | 667 | 105 | 108 | 106 | 98.5 | 78.7 | 8.51 | 7.71 | 7.53 | 8.04 | inhibition at 3 µM ([2]; Homo sapiens, ASPC1, 3 μM concentration, with light): > 90%; Cell viability, Phototoxicity against MIA-PaCa-2 (MIA-PaCa-2; 3.12 μM photosensitizer): 4.68%; Cell viability, Phototoxicity against MIA-PaCa-2 (MIA-PaCa-2; 6.25 μM photosensitizer): 5.07%; Cell viability, Phototoxicity against MIA-PaCa-2 (MIA-PaCa-2; 12.5 μM photosensitizer): 4.93%; Cell viability, Phototoxicity against MIA-PaCa-2 (MIA-PaCa-2; 25 μM photosensitizer): 5.39%; Cell viability, Phototoxicity against MIA-PaCa-2 (MIA-PaCa-2; 50 μM photosensitizer): 5.90%; inhibition at 3 µM (MIA-PaCa-2; Homo sapiens, MIA PaCa-2, 3 μM concentration, with light): > 90%; Cell viability, Phototoxicity against PANC-1 (PANC-1; 50 μM photosensitizer): 7.28%; inhibition at 3 µM (PANC-1; Homo sapiens, PANC-1, 3 μM concentration, with light): > 90% |
| Dimethylester of Chlorine e6 [dimethyl ester ce6] | – | – | – | – | – | – | – | – | – | – | 656 | – | – | – | – | – | – | – | – | – | – |

Reference: patent US20200172549A1, “NOVEL CHLORIN E6-CURCUMIN DERIVATIVES, PREPARATION METHOD THEREOF, AND PHARMACEUTICAL COMPOSITION CONTAINING THE SAME FOR TREATMENT OF CANCER” (DONG SUNG PHARM. CO., LTD., priority 2017, published 2020)
